Data as given in patent publication US10717716B2, “1,3,4-oxadiazole derivative compounds as histone deacetylase 6 inhibitor, and the pharmaceutical composition comprising the same” (Chong Kun Dang Pharmaceutical Corp., priority 2015, dated 2020).

Columns and labels:
human recombinant HDAC1 = biological target: T1, human recombinant HDAC1 (Homo sapiens, UniProt Q13547); assay: HDAC1 enzyme activity inhibition assay (HDAC Fluorimetric Drug Discovery Kit); type: biochemical; conditions: human recombinant HDAC1, Fluor de Lys substrate 10 μM, 30° C. 60 minutes
T1 construct: purchased Enzo Life Science BML-SE456
Outline: (§1)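 Fluorimetric deacetylase assay: 5-fold serial compound dilutions, 0.3 μg recombinant human enzyme (HDAC1 or HDAC6, same protocol), 10 μM Fluor de Lys-SIRT1 substrate, 60 min at 30 °C. Signal developed 30 min, measured at 360/460 nm; IC50 values derived.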

human recombinant HDAC6 = biological target: T2, human recombinant HDAC6 (Homo sapiens, UniProt Q9UBN7); assay: HDAC6 enzyme activity inhibition assay (HDAC Fluorimetric Drug Discovery Kit); type: biochemical; conditions: for HDAC6 selectivity (fold): HDAC6 over HDAC1; for IC50: human recombinant HDAC6, same protocol as HDAC1, read-out: HDAC6
T2 construct: purchased Calbiochem 382180
T2 sequence (Q9UBN7 1-1215): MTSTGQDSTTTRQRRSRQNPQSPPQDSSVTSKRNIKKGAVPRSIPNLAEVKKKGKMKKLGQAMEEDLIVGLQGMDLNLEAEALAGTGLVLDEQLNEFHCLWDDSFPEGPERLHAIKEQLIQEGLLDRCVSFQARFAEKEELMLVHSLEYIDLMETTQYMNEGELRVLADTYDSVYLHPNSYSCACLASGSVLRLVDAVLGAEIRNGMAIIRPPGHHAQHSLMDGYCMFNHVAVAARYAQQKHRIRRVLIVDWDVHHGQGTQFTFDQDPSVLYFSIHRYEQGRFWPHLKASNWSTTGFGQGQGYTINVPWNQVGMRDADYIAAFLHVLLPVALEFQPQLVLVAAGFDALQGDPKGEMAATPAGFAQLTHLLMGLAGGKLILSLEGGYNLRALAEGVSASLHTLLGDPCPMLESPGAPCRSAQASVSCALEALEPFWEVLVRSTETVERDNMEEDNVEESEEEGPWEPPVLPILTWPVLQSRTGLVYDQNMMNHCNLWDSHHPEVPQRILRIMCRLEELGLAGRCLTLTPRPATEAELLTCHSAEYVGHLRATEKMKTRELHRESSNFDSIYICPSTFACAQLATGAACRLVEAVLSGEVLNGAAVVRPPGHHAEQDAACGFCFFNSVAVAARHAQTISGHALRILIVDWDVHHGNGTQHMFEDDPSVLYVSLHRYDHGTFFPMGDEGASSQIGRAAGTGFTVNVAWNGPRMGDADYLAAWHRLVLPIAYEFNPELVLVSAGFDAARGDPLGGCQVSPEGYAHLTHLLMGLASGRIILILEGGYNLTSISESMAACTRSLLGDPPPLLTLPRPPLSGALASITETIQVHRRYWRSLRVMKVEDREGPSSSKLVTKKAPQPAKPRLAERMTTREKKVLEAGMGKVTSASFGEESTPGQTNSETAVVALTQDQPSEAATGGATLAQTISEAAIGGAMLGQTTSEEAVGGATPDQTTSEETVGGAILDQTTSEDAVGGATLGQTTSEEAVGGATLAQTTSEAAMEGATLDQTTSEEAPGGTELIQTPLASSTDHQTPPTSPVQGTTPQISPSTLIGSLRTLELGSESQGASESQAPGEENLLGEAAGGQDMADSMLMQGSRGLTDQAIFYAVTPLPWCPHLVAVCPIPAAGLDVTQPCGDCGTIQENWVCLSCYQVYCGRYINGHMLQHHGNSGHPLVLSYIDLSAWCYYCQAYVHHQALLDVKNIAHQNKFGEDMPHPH
Outline: as §1

T1 sequence (Q13547 whole entry): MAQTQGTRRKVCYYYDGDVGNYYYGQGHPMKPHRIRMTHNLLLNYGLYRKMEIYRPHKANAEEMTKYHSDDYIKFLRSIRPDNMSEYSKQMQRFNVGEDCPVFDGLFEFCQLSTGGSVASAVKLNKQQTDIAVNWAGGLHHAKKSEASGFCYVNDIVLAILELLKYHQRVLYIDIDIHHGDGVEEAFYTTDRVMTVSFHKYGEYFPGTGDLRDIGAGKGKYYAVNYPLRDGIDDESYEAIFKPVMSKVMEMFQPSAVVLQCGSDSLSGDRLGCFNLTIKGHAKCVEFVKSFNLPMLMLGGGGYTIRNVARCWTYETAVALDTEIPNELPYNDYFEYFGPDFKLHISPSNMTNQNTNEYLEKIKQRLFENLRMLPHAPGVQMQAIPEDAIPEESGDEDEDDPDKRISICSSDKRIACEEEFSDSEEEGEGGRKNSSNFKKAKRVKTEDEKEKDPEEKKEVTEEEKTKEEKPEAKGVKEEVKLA

SMILES | IC50 (human recombinant HDAC1) [µM] | HDAC6 selectivity (fold) (human recombinant HDAC6) | IC50 (human recombinant HDAC6) [µM]
Cn1ncc2ccc(N(Cc3ccc(-c4nnc(C(F)F)o4)cc3F)C(=O)N3CCOCC3)cc21 [Compound 21724, N-(4-(5-(Difluoromethyl)-1,3,4-oxadiazol-2-yl)-2-fluorobenzyl)-N-(1-methyl-1H-indazol-6-yl)morpholine-4-carboxamide] | 20.7 | 736 | 0.028
CCN1CCN(C(=O)N(Cc2ccc(-c3nnc(C(F)F)o3)cc2F)c2ccc3cnn(C)c3c2)CC1 [Compound 21735, N-(4-(5-(difluoromethyl)-1,3,4-oxadiazol-2-yl)-2-fluorobenzyl)-4-ethyl-N-(1-methyl-1H-indazol-6-yl)piperazine-1-carboxamide] | 19.1 | 662 | 0.029
CN(C)[C@@H]1CCN(C(=O)N(Cc2ccc(-c3nnc(C(F)F)o3)cc2F)c2ccc3cnn(C)c3c2)C1 [Compound 21736, (R)—N-(4-(5-(difluoromethyl)-1,3,4-oxadiazol-2-yl)-2-fluorobenzyl)-3-(dimethylamino)-N-(1-methyl-1H-indazol-6-yl)pyrrolidine-1-carboxamide] | 17.7 | 432 | 0.041
O=C(N1CCS(=O)(=O)CC1)N(Cc1ccc(-c2nnc(C(F)F)o2)cc1F)c1ccccc1F [Compound 21808, N-(4-(5-(difluoromethyl)-1,3,4-oxadiazol-2-yl)-2-fluorobenzyl)-N-(2-fluorophenyl)thiomorpholine-4-carboxamide 1,1-dioxide] | 42.6 | 2023 | 0.021
O=C(N1CCS(=O)(=O)CC1)N(Cc1ccc(-c2nnc(C(F)F)o2)cc1F)c1cccc(Cl)c1 [Compound 21810, N-(3-chlorophenyl)-N-(4-(5-(difluoromethyl)-1,3,4-oxadiazol-2-yl)-2-fluorobenzyl)thiomorpholine-4-carboxamide 1,1-dioxide] | 15.7 | 883 | 0.018
O=C(N1CCS(=O)(=O)CC1)N(Cc1ccc(-c2nnc(C(F)F)o2)cn1)c1ccc(-c2ccncc2)cc1 [Compound 21823, N-((5-(5-(difluoromethyl)-1,3,4-oxadiazol-2-yl)pyridin-2-yl)methyl)-N-(4-(pyridin-4-yl)phenyl)thiomorpholine-4-carboxamide 1,1-dioxide] | 20.8 | 370 | 0.056
O=C(N1CCS(=O)(=O)CC1)N(Cc1ccc(-c2nnc(C(F)F)o2)cn1)c1ccc(-c2cccnc2)cc1 [Compound 21824, N-((5-(5-(difluoromethyl)-1,3,4-oxadiazol-2-yl)pyridin-2-yl)methyl)-N-(4-(pyridin-3-yl)phenyl)thiomorpholine-4-carboxamide 1,1-dioxide] | 17.7 | 563 | 0.031
O=C(N1CCS(=O)(=O)CC1)N(Cc1ccc(-c2nnc(C(F)F)o2)cn1)c1ccc(F)cc1 [Compound 21829, N-((5-(5-(difluoromethyl)-1,3,4-oxadiazol-2-yl)pyridin-2-yl)methyl)-N-(4-fluorophenyl)thiomorpholine-4-carboxamide 1,1-dioxide] | 47 | 1542 | 0.031
O=C(N1CCS(=O)(=O)CC1)N(Cc1ccc(-c2nnc(C(F)F)o2)cn1)c1cccc(F)c1 [Compound 21830, N-((5-(5-(difluoromethyl)-1,3,4-oxadiazol-2-yl)pyridin-2-yl)methyl)-N-(3-fluorophenyl)thiomorpholine-4-carboxamide 1,1-dioxide] | 40.9 | 1298 | 0.032
O=C(N1CCS(=O)(=O)CC1)N(Cc1ccc(-c2nnc(C(F)F)o2)cn1)c1ccc(Cl)cc1 [Compound 21831, N-(4-chlorophenyl)-N-((5-(5-(difluoromethyl)-1,3,4-oxadiazol-2-yl)pyridin-2-yl)methyl)thiomorpholine-4-carboxamide 1,1-dioxide] | 64.4 | 1538 | 0.042
O=C(N1CCOCC1)N(Cc1ccc(-c2nnc(C(F)F)o2)cn1)c1ccc(F)cc1 [Compound 21839, N-((5-(5-(difluoromethyl)-1,3,4-oxadiazol-2-yl)pyridin-2-yl)methyl)-N-(4-fluorophenyl) morpholine-4-carboxamide] | 56.7 | 1689 | 0.034
O=C(N1CCOCC1)N(Cc1ccc(-c2nnc(C(F)(F)F)o2)cn1)c1ccc(F)cc1 [Compound 21840, N-(4-fluorophenyl)-N-((5-(5-(trifluoromethyl)-1,3,4-oxadiazol-2-yl)pyridin-2-yl)methyl) morpholine-4-carboxamide] | 31.9 | 170 | 0.188
O=C(N1CCOCC1)N(Cc1ccc(-c2nnc(C(F)(F)F)o2)cc1F)c1ccc(F)cc1 [Compound 21842, N-(2-fluoro-4-(5-(trifluoromethyl)-1,3,4-oxadiazol-2-yl)benzyl)-N-(4-fluorophenyl)morpholine-4-carboxamide] | 25.2 | 135 | 0.187
O=C(N1CCOCC1)N(Cc1ccc(-c2nnc(C(F)(F)F)o2)cn1)c1cccc(F)c1 [Compound 21844, N-(3-fluorophenyl)-N-((5-(5-(trifluoromethyl)-1,3,4-oxadiazol-2-yl)pyridin-2-yl)methyl) morpholine-4-carboxamide] | 32.3 | 404 | 0.08
O=C(N1CCOCC1)N(Cc1ccc(-c2nnc(C(F)F)o2)cc1F)c1cccc(F)c1 [Compound 21845, N-(4-(5-(difluoromethyl)-1,3,4-oxadiazol-2-yl)-2-fluorobenzyl)-N-(3-fluorophenyl)morpholine-4-carboxamide] | 62.3 | 1919 | 0.032
O=C(N1CCOCC1)N(Cc1ccc(-c2nnc(C(F)(F)F)o2)cc1F)c1cccc(F)c1 [Compound 21846, N-(2-fluoro-4-(5-(trifluoromethyl)-1,3,4-oxadiazol-2-yl)benzyl)-N-(3-fluorophenyl)morpholine-4-carboxamide] | 21.3 | 173 | 0.123
O=C(N1CCOCC1)N(Cc1ccc(-c2nnc(C(F)F)o2)cn1)c1ccc(Cl)cc1 [Compound 21847, N-(4-chlorophenyl)-N-((5-(5-(difluoromethyl)-1,3,4-oxadiazol-2-yl)pyridin-2-yl)methyl) morpholine-4-carboxamide] | 70.2 | 1811 | 0.039
O=C(N1CCOCC1)N(Cc1ccc(-c2nnc(C(F)(F)F)o2)cn1)c1ccc(Cl)cc1 [Compound 21848, N-(4-chlorophenyl)-N-((5-(5-(trifluoromethyl)-1,3,4-oxadiazol-2-yl)pyridin-2-yl)methyl) morpholine-4-carboxamide] | 41.9 | 161 | 0.261
O=C(N1CCOCC1)N(Cc1ccc(-c2nnc(C(F)(F)F)o2)cc1F)c1ccc(Cl)cc1 [Compound 21850, N-(4-chlorophenyl)-N-(2-fluoro-4-(5-(trifluoromethyl)-1,3,4-oxadiazol-2-yl)benzyl)morpholine-4-carboxamide] | 68.6 | 157 | 0.436
O=C(N1CCOCC1)N(Cc1ccc(-c2nnc(C(F)(F)F)o2)cn1)c1cccc(Cl)c1 [Compound 21852, N-(3-chlorophenyl)-N-((5-(5-(trifluoromethyl)-1,3,4-oxadiazol-2-yl)pyridin-2-yl)methyl) morpholine-4-carboxamide] | 15.3 | 118 | 0.131
